These results are taken from patent publication US5984868A, “Device for measuring an absorbed dose of gas by skin and method therefor” (Institute of Occupational Safety and Health, Council of …, priority 1998, dated 1999).

In data set [1] the test system is skin. Kind of data set: Absorbed dose of vapor by skin in exposure chamber (Embodiment 2, 25±1.5 ppm). Conditions: 25±1.5 ppm vapor.
Text: The test concentration of the hazardous gas is 25 ppm in compliance with the allowable limit set forth by OSHA. In light of the lack of an exposure chamber large enough to accommodate a human body in its entirety, a small exposure chamber was used to investigate the absorption of the hazardous gas by the skin of an arm. On the basis of the result of the hand, the absorption of the hazardous gas by the skin of the whole body was estimated. […] The hand and the arm of a worker are often exposed on the job and are therefore used as subjects of the investigation. It is also assumed that the gas absorption rate of the skin of a hand is about equal to the average value of the gas absorption rate of the skin of the whole body. […] As a result, an absorbed dose of 300 ppm by a hand is about corresponding to an absorbed dose of 15 ppm by a whole body (300 ppm*1,250 cm^2 /18,000 cm^2 * 0.75). […] The digital signals were then transmitted to a computer (Pentium 100). When the concentration signal of the hazardous gas contained in the exposure chamber received by the computer was lower than the lower limit of 23.5 ppm, an instruction was generated by the software program and transmitted to activate the automatic injection system to raise quickly the concentration up to the upper limit of 26.5 ppm. […] Throughout the experiment of the present invention, a series of injected doses of the hazardous gas were obtained. The sum of the injected doses was used to compute the absorbed dose of the hazardous gas by the skin.
The rotation speeds of the two fans were adjusted to obtain desired wind velocities and flow streams by using an adjustable resistor. […] When the hand was extended into the exposure chamber, the contact portions of the hand and the exposure chamber were covered with two layers of aluminum foil in conjunction with a transparent plastic bag therebetween. In addition, the upper arm was banded with the 3M bandage to avert the gas leak. Located respectively in the front, the middle and the rear of the exposure chamber was a detector for monitoring the uniformity of the gas concentration distribution and the change in the gas concentration throughout the experiment.
It must be noted here that m1 is equal to the post-calibration injection rate multiplied by the accumulated injection times. […] This implies that only m1 and m2 must be measured with precision.
For data set [2] the following is noted: Johanson et al, 1988; cited from earlier work.
The test system of data set [3] is skin. Kind of data set: Absorbed dose of vapor by skin of an arm in feedback-controlled exposure chamber, six voluntary subjects (Embodiment 1, 300±10 ppm). Format: in vivo, human. On the procedure:
(§1) The injection rate of the injection system was checked with a five-digit balance (Mettler model AT-201, Switzerland). 2-methoxy ethanol was continuously injected into a glass bottle, and six continuous injections were measured to obtain the average value and the coefficient of variation. Each continuous injection had 10 injection does. An average injection dose was obtained from the […] injection doses. The average dose of each ejection was then used as a computation base for checking the injection dose of the system. After each human experiment, the above weight calibration was used again to check the average injection dose of each ejection so as to obtain the relative percentage error of the average injection doses before and after the experiment. The flash evaporation chamber is a small glass chamber which is embraced by a heating strap and a temperature control device, as shown in FIG. 1. The flash evaporation chamber was used to accelerate the evaporation of the liquid 2-methoxy ethanol and to shorten the reaction time of the system. When the evaporation of the liquid was slower than the skin absorption rate, it will cause the injection system to continuously inject the 2-methoxy ethanol, and thus result in an excess absorption dose of the vapor by the skin of the human under test. The flash evaporation chamber of the present invention can avoid this problem by providing with the heating strap.
(§2) The measurement of the absorbed dose of vapor by skin was carried out respectively with each of six voluntary subjects whose personal data are shown in the following Table 3:
(§3) The method of the first embodiment is illustrated in FIG. 1 in which the arm of a subject is shown being put into an exposure chamber. The exposure chamber contains 2-methoxy ethanol having a concentration of 300±10 ppm, with the relative humidity and the temperature of the exposure chamber being respectively 80±2%, and 25±1° C. For details of the control of the first embodiment, please refer to the Preparatory Embodiments described above.
(§4) According, m5 can be justifiably ignored.

Assay in data set [4]: as above
The data set is classed as in vivo, human. Particulars: human, topical or ocular, 300±10 ppm vapor; mean of six subjects; read-out: permeability constant, mean (converted). On the procedure: as §1, §2, §3, §4

The nature of data set [5]: 2-methoxy ethanol dose in the subject's exhalation. Format: in vivo. Conditions: human, exhaled air, topical or ocular; of the total absorbed dose; read-out: 2-methoxy ethanol doses in the subject's exhalation, share of total absorbed dose.
Text: as §4

For data set [6] the following is noted: general statement, no test shown; cited from earlier work.
Setting [7] is: 300±10 ppm vapor, 80±2% RH, 25±1° C., arm, individual subjects 1-6.
Setting [8] is: 300±10 ppm vapor, mean of six subjects.

SMILES strings stand for the structures. Where “and” joins values, the source holds several entries; their conditions need not be identical. Identical values can stand only once. Some results are limits rather than exact numbers.

Turning to `COCCO` [2-methoxy ethanol], in the data set on skin [1], the “m1 (accumulated doses added to the exposure chamber)” value was determined as 34.5 mg, the “m2 (doses captured by the condensation dehumidifier)” value is reported as 27.1 mg, the “m3 (gas residual left on the exposed arm)” value was 0.04 mg and the “m5 (doses contained in the subject's exhalations)” value is reported as “trace”. Further, in data set [2], the “distribution coefficient of the human blood relative to air” value is 32,836. For the same compound, in the data set with skin [3] (setting [7]), the “m1 (accumulated doses added to stabilize the concentration in the exposure chamber)” value is 430.00 mg and 296.88 mg and 172.46 mg and 285.11 mg and 350.67 mg and 394.56 mg; the “m2 (doses captured by the condensation dehumidifier)” value is 328.50 mg and 222.75 mg and 137.75 mg and 210.00 mg and 301.00 mg and 304.75 mg; the “m3 (gas residual left on the exposed arm after termination of exposure)” value was 0.35 mg and 0.58 mg and 0.66 mg and 0.63 mg and 0.16 mg; the permeability constant is 5575 ×10⁻⁶ cm/s and 4600 ×10⁻⁶ cm/s and 1650 ×10⁻⁶ cm/s and 4508 ×10⁻⁶ cm/s and 2540 ×10⁻⁶ cm/s and 4469 ×10⁻⁶ cm/s. Besides, in the data set with skin [3] (setting [7]), the skin absorption rate is 18.72 μg/cm^2 /h and 15.45 μg/cm^2 /h and 5.55 μg/cm^2 /h and 15.14 μg/cm^2 /h and 8.52 μg/cm^2 /h and 15.01 μg/cm^2 /h; the “Δm (absorbed dose by skin, m1-m2-m3-m4)” value was 96.11 mg and 68.51 mg and 29.01 mg and 69.44 mg and 44.04 mg and 84.61 mg. In the data set on skin [3] (setting [8]), the “skin absorption rate, mean” value is on record as 13.07 μg/cm^2 /h and the “Δm (absorbed dose by skin), mean” value is 65.29 mg. The “m3 and m4, respectively, relative to the dose of m1” value in the data set with skin [3] (of the dose of m1) was “less than 1%”. In data set [4], the Papp is 3890 ×10⁻⁶ cm/s. Besides, in data set [5], the dose excreted is below 0.4%. Also, the water solubility result in data set [6] was “excellent”.
